# In ChEMBL document CHEMBL1201862, “PubChem BioAssay data set” (2004):
#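 How tested: cells in 96-well plates exposed to compound for 48 hours at five concentrations. Abbreviation: GI50, concentration required for 50% inhibition of growth.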 Activity calls are given as the source filed them. Cut-off read from the data, not from the text of the source: active = GI50 up to about 1.1 µM and inactive = higher.
# Assays:
# Experiment in all cases: growth of human tumour cells (NCI), 48 h
# RXF 393 = tested on: RXF 393
# OVCAR-8 = tested on: OVCAR-8
# U-251 = tested on: U-251
# LOX IMVI = tested on: LOX IMVI
# MDA-N = tested on: MDA-N
# UACC-62 = tested on: UACC-62
# COLO 205 = tested on: COLO 205
# OVCAR-5 = tested on: OVCAR-5
# SK-MEL-5 = tested on: SK-MEL-5
# A549 = tested on: A549
# 786-0 = tested on: 786-0
# HCT-15 = tested on: HCT-15
# KM12 = tested on: KM12
# K562 = tested on: K562
# UO-31 = tested on: UO-31
# CCRF-CEM = tested on: CCRF-CEM
# SF-295 = tested on: SF-295
# NCI-H226 = tested on: NCI-H226
# Malme-3M = tested on: Malme-3M
# ACHN = tested on: ACHN
Compound,GI50 (RXF 393),GI50 (OVCAR-8),GI50 (U-251),GI50 (LOX IMVI),GI50 (MDA-N),GI50 (UACC-62),GI50 (COLO 205),GI50 (OVCAR-5),GI50 (SK-MEL-5),GI50 (A549),GI50 (786-0),GI50 (HCT-15) [µM],GI50 (KM12),GI50 (K562),GI50 (UO-31),GI50 (CCRF-CEM),GI50 (SF-295),GI50 (NCI-H226),GI50 (Malme-3M),GI50 (ACHN)
C=C(Br)CNC(=O)CCC(=O)NCC(=C)Br,> 100 µM (inactive),> 100 µM (inactive),> 100 µM (inactive),> 100 µM (inactive),> 100 µM (inactive),> 100 µM (inactive),> 100 µM (inactive),> 100 µM (inactive),> 100 µM (inactive),> 100 µM (inactive),> 100 µM (inactive),> 100,> 100 µM (inactive),> 100 µM (inactive),> 100 µM (inactive),> 100 µM (inactive),> 100 µM (inactive),> 100 µM (inactive),> 100 µM (inactive),> 100 µM (inactive)
c1ccc2c(c1)CN1CCCC1CN2 (stereo not given),> 100 µM (inactive),> 100 µM (inactive),> 100 µM (inactive),> 100 µM (inactive),> 100 µM (inactive),> 100 µM (inactive),> 100 µM (inactive),> 100 µM (inactive),> 100 µM (inactive),> 100 µM (inactive),> 100 µM (inactive),> 100,> 100 µM (inactive),> 100 µM (inactive),> 100 µM (inactive),> 100 µM (inactive),> 100 µM (inactive),> 100 µM (inactive),> 100 µM (inactive),> 100 µM (inactive)
O=P(NC12CC3CC(CC(C3)C1)C2)(N1CC1)N1CC1,15.4 µM (inactive),43 µM (inactive),27.4 µM (inactive),11.1 µM (inactive),> 100 µM (inactive),4.16 µM (inactive),> 100 µM (inactive),> 100 µM (inactive),34.9 µM (inactive),26.5 µM (inactive),23.2 µM (inactive),> 68.5,> 100 µM (inactive),37.6 µM (inactive),30.5 µM (inactive),7.24 µM (inactive),10 µM (inactive),41.6 µM (inactive),84.9 µM (inactive),4.67 µM (inactive)
OCCn1cnc2c(SCc3ccccc3)ncnc21,> 100 µM (inactive),> 100 µM (inactive),52.4 µM (inactive),61.1 µM (inactive),> 100 µM (inactive),> 100 µM (inactive),95.5 µM (inactive),> 100 µM (inactive),> 100 µM (inactive),> 100 µM (inactive),> 100 µM (inactive),11.9,> 100 µM (inactive),79.4 µM (inactive),> 100 µM (inactive),39.1 µM (inactive),> 100 µM (inactive),> 100 µM (inactive),> 100 µM (inactive),> 100 µM (inactive)
CC(C)(C)OC(=O)[C@@H]1CCC(=O)N1C1(c2ccccc2)c2ccccc2-c2ccccc21,9.77 µM (inactive),88.1 µM (inactive),25.7 µM (inactive),17.9 µM (inactive),29.4 µM (inactive),33.6 µM (inactive),21.4 µM (inactive),93.1 µM (inactive),23.9 µM (inactive),35.2 µM (inactive),38.8 µM (inactive),55.5,43.3 µM (inactive),41 µM (inactive),67.3 µM (inactive),23.8 µM (inactive),19.1 µM (inactive),> 100 µM (inactive),33.3 µM (inactive),26.9 µM (inactive)
CCc1nc(N)nc(N)c1-c1ccc2nn(-c3ccccc3)[n+]([O-])c2c1,10.3 µM (inactive),2.42 µM (inactive),2.58 µM (inactive),1.01 µM (active),0.895 µM (active),1.02 µM (active),8.22 µM (inactive),14 µM (inactive),2.61 µM (inactive),0.378 µM (active),1.16 µM (inactive),0.697,5.45 µM (inactive),0.203 µM (active),7.13 µM (inactive),1.6 µM (inactive),2.4 µM (inactive),14.5 µM (inactive),10.7 µM (inactive),1.76 µM (inactive)
CCOP(=O)(OCC)C(C#N)Cc1ccco1 (stereo not given),> 10 µM (inactive),> 10 µM (inactive),> 10 µM (inactive),> 10 µM (inactive),> 10 µM (inactive),> 10 µM (inactive),> 10 µM (inactive),> 10 µM (inactive),> 10 µM (inactive),> 10 µM (inactive),> 10 µM (inactive),> 10,> 10 µM (inactive),> 10 µM (inactive),> 10 µM (inactive),> 10 µM (inactive),> 10 µM (inactive),> 10 µM (inactive),> 10 µM (inactive),> 10 µM (inactive)
O=C(C1OC1c1ccc(Cl)cc1)C12CC3CC(CC(C3)C1)C2 (stereo not given),21.8 µM (inactive),16.5 µM (inactive),15.4 µM (inactive),4.02 µM (inactive),15.2 µM (inactive),15.4 µM (inactive),19.5 µM (inactive),24.2 µM (inactive),14.5 µM (inactive),21.8 µM (inactive),16.3 µM (inactive),20.1,18.8 µM (inactive),25.1 µM (inactive),20.4 µM (inactive),19 µM (inactive),18.2 µM (inactive),18.3 µM (inactive),22.4 µM (inactive),35.4 µM (inactive)
CCN(C(=O)N[C@H](C(=O)N[C@@H](C)C(=O)OC)C(C)C)c1ccccc1,39.5 µM (inactive),24.5 µM (inactive),28.9 µM (inactive),> 100 µM (inactive),34.2 µM (inactive),22.1 µM (inactive),20 µM (inactive),> 100 µM (inactive),36.8 µM (inactive),> 100 µM (inactive),27.3 µM (inactive),32.4,39.6 µM (inactive),24 µM (inactive),43.3 µM (inactive),56 µM (inactive),70 µM (inactive),> 100 µM (inactive),20 µM (inactive),45.2 µM (inactive)
O=C(N/S(=N/S(=O)(=O)c1ccc(Br)cc1)C(Cl)(Cl)Cl)c1ccccc1 (stereo not given),> 100 µM (inactive),> 100 µM (inactive),> 100 µM (inactive),> 100 µM (inactive),> 100 µM (inactive),> 100 µM (inactive),> 100 µM (inactive),> 100 µM (inactive),> 100 µM (inactive),> 100 µM (inactive),> 100 µM (inactive),> 100,> 100 µM (inactive),> 100 µM (inactive),> 100 µM (inactive),> 100 µM (inactive),> 100 µM (inactive),> 100 µM (inactive),> 100 µM (inactive),> 100 µM (inactive)
Nc1ncnc2c1cnn2COCC(O)CO (stereo not given),> 100 µM (inactive),> 100 µM (inactive),> 100 µM (inactive),> 100 µM (inactive),> 100 µM (inactive),> 100 µM (inactive),> 100 µM (inactive),> 100 µM (inactive),> 100 µM (inactive),> 100 µM (inactive),> 100 µM (inactive),> 100,> 100 µM (inactive),> 100 µM (inactive),> 100 µM (inactive),> 100 µM (inactive),> 100 µM (inactive),> 100 µM (inactive),> 100 µM (inactive),> 100 µM (inactive)
O/N=C1\CC2(N3CCOCC3)CCC1(Cc1ccccc1)CC2,21.1 µM (inactive),23.4 µM (inactive),19.4 µM (inactive),2.55 µM (inactive),> 100 µM (inactive),> 10 µM (inactive),> 100 µM (inactive),> 100 µM (inactive),> 100 µM (inactive),> 100 µM (inactive),19 µM (inactive),> 100,> 100 µM (inactive),> 100 µM (inactive),> 100 µM (inactive),> 100 µM (inactive),22.9 µM (inactive),35 µM (inactive),66.4 µM (inactive),22.3 µM (inactive)
N#Cc1nc(COCCOCc2ccccc2)oc1N,> 100 µM (inactive),> 100 µM (inactive),> 100 µM (inactive),> 100 µM (inactive),> 100 µM (inactive),> 100 µM (inactive),> 100 µM (inactive),> 100 µM (inactive),> 100 µM (inactive),> 100 µM (inactive),> 100 µM (inactive),> 100,> 100 µM (inactive),> 100 µM (inactive),> 100 µM (inactive),30 µM (inactive),> 100 µM (inactive),> 100 µM (inactive),> 100 µM (inactive),> 100 µM (inactive)
Cc1nc(-n2nc(-c3ccccc3)cc2-c2ccccc2)sc1C(=O)/C=C/c1ccc([N+](=O)[O-])cc1,16.7 µM (inactive),17.7 µM (inactive),16 µM (inactive),15.7 µM (inactive),19.2 µM (inactive),19.4 µM (inactive),24.4 µM (inactive),> 59.4 µM (inactive),16.6 µM (inactive),> 59.7 µM (inactive),13 µM (inactive),14,9.29 µM (inactive),14.2 µM (inactive),14 µM (inactive),14 µM (inactive),> 46.6 µM (inactive),57.8 µM (inactive),34.2 µM (inactive),26.5 µM (inactive)
